pIC50: −log10 of the molar value. The source made the active and inactive calls. The rule behind the calls is not given here.

This passage reports IC50 and Activity results from ChEMBL document CHEMBL1140522, “Peptidomimetic inhibitors of farnesyltransferase with high in vitro activity and significant cellular potency” (Bioorg Med Chem Lett, 2007).

Test [1] can be described thus: Inhibition of farnesyl transferase. Details: species or system Homo sapiens.
The species named for test [2] is Homo sapiens. Put plainly: Effect on FTase mediated Ras farnesylation in human aortic smooth muscle cells at 250 uM after 72 hrs by Western blot analysis. (Immunoblotting shows a protein as a band on a membrane.)
Test [3] is described as follows: Antiproliferative effect on human aortic smooth muscle cells. The format is functional.
The species entered for test [4] is Homo sapiens. Put plainly: Effect on FTase mediated Ras farnesylation in human aortic smooth muscle cells at 2 uM after 72 hrs by Western blot analysis.

Regarding `CSCC[C@H](NC(=O)c1ccc(OC[C@@H]2COc3ncccc3O2)cc1-c1ccccc1C)C(=O)O`, the pIC50 in test [1] is 7.35; in test [3], 4.23. Moreover, the result in the test listed under Homo sapiens [2] was Active.

In turn, `COc1ccccc1-c1c(CN[C@@H](CCSC)C(=O)O)cccc1NC(=O)C[C@H]1COc2ncccc2O1` gave a negative logarithm of the IC50 (pIC50) in test [1] of 3.52.

`COc1ccccc1-c1c(CN[C@H](CCSC)C(=O)O)cccc1NC(=O)C[C@H]1COc2ncccc2O1` (mixture of isomers): the pIC50 in test [1] is 3.07.

For the compound `COc1ccccc1-c1cc(OC[C@@H]2COc3ncccc3O2)ccc1C(=O)N[C@H](CCSC)C(=O)O`, the pIC50 in test [1] was 6.95. Compared with the last compound, the pIC50 is 3.88 log units higher.

Take `CSCC[C@H](NCc1cccc(NC(=O)C[C@@H]2COc3ncccc3O2)c1-c1ccccc1C)C(=O)O` (mixture of isomers): the pIC50 in test [1] was 4.80.

For the compound `CSCC[C@@H](NC(=O)c1ccc(OC[C@H]2COc3ncccc3O2)cc1-c1ccccc1C)C(=O)O`, the pIC50 is 7.12 in test [1] and 3.62 in test [3].

For `CSCC[C@@H](NC(=O)c1ccc(OC[C@@H]2COc3ncccc3O2)cc1-c1ccccc1C)C(=O)O`, the pIC50 in test [1] is 7.28; in test [3], 4.77. Further, the result in the test filed under Homo sapiens [2] was Active.

With `COc1ccccc1-c1cc(OC[C@H]2COc3ncccc3O2)ccc1C(=O)N[C@@H](CCSC)C(=O)O`, in test [1], the pIC50 is 7.28.

As for `COc1ccccc1-c1c(CN[C@H](CCSC)C(=O)O)cccc1NC(=O)C[C@@H]1COc2ncccc2O1`, in test [1], the pIC50 was less than 3.00.

`COc1ccccc1-c1cc(OC[C@H]2COc3ncccc3O2)ccc1C(=O)N[C@H](CCSC)C(=O)O` gave a negative-log IC50 (pIC50) in test [1] of less than 3.00.

In turn, `CSCC[C@@H](NCc1cccc(NC(=O)C[C@@H]2COc3ncccc3O2)c1-c1ccccc1C)C(=O)O` had a pIC50 in test [1] of less than 3.00.

Regarding `CSCC[C@H](NCc1cccc(NC(=O)C[C@H]2COc3ncccc3O2)c1-c1ccccc1C)C(=O)O`, the pIC50 in test [1] was 4.92.

As to `CSCC[C@H](NC(=O)c1ccc(OC[C@H]2COc3ncccc3O2)cc1-c1ccccc1C)C(=O)O`, the negative logarithm of the IC50 (pIC50) in test [1] is 7.30; in test [3], 3.80.

For the compound `CCC(C)(C)C(=O)O[C@H]1C[C@@H](C)C=C2C=C[C@H](C)[C@H](CC[C@@H]3C[C@@H](O)CC(=O)O3)[C@H]21`, the result in the test listed under Homo sapiens [4] was Active.

`COc1ccccc1-c1cc(OC[C@@H]2COc3ncccc3O2)ccc1C(=O)N[C@@H](CCSC)C(=O)O` (mixture of isomers): the pIC50 in test [1] is 7.26.

In the case of `COc1ccccc1-c1c(CN[C@@H](CCSC)C(=O)O)cccc1NC(=O)C[C@@H]1COc2ncccc2O1` (mixture of isomers), the negative-log IC50 (pIC50) in test [1] is 3.82.

`CSCC[C@@H](NCc1cccc(NC(=O)C[C@H]2COc3ncccc3O2)c1-c1ccccc1C)C(=O)O` (mixture of isomers) gave a pIC50 in test [1] of less than 3.00.

In general, pIC50 refers to the negative decadic logarithm of the IC50, by convention in mol/L. Low readings indicate a large IC50, high ones a small IC50.
